Source: US11096946B2, “Use of a PPAR-δ agonist for reducing loss of muscle strength, muscle mass, or type I muscle fibers in an immobilized limb” (vTv Therapeutics LLC, priority 2013, dated 2021)
Several values for one entry are separate records, joined by “and”; a condition that tells them apart may be missing. Equal entries are not always repeated. Structures can show the parent of a compound that is named as a salt.

Test system: human subjects
Assay: Repeated measures knee extension strength test (Muscle Strength Test) during and after limb immobilization, placebo-controlled study
Assay type: in vivo
Conditions: for Muscle strength, knee extension, Baseline Mean: baseline pre-dose; for Muscle strength, knee extension, LSMean change from baseline, Day 14: Day 14 (brace off); for Muscle strength, knee extension, LSMean change from baseline, Day 29: P 0.2 vs placebo; for Mean Difference Compound 1 vs Placebo, LSMean change in muscle strength, Day 29: P 0.2
Excerpt: A protocol for the experimental evaluation of the impact of a PPARδ agonist on muscle atrophy during and following the end of limb immobilization is provided below. In the protocol, reference to Compound 1 refers to (E)-[4-[3-(4-Fluorophenyl)-3-[4-[3-(morpholin-4-yl)propynyl]phenyl]allyloxy]-2-methyl-phenoxy]acetic acid sodium salt.
A randomized, investigator and subject blind, sponsor open, placebo-controlled study evaluating the possible impact of Compound 1 on the recovery of muscle atrophy from limb immobilization is described. Subjects will be leg immobilized using a knee brace (30 degrees flexion on the left leg to allow driving) and will be provided with walking crutches such that there is no weight bearing on the immobilized leg. Subjects will be enrolled and randomized to receive Compound 1 or placebo (both referenced as Study Drug in this protocol). The study consists of five periods termed SCR (screening period, Day −35 to −3), BL (baseline period: Day −1 to Day 1 [am]), IMM (limb immobilization and treatment with study drug, Day 1 [pm] to Day 14), TRE (treatment with study drug without limb immobilization, Day 15 to Day 29) and REC (no treatment recovery period, Day 29 to Day 42). There will be six testing days during the study: Day 1 (baseline), Day 14 (brace off day), Day 16 (48 hours after brace off), Day 21, Day 29 (last dose) and Day 42 (final study visit). On each testing day, subjects will undergo the combination of several testing procedures in sequential order as listed: 1) Morning activity plus approximately 500-step walk (when domiciled at Clinical Research Unit [CRU]); 2) Blood sampling; 3) Standardized breakfast (Study Drug administration will be immediately before the breakfast except for Day 42); 4) Muscle biopsy; 5) Leg muscle strength tests (MST) and modified physical performance test (PPT); and 6) Magnetic resonance imaging (MRI) of the thigh to evaluate thigh muscle volume/cross-section area (CSA).
Two treatment groups in this study: • a) Treatment group A: Treated with 100 mg of Compound 1 twice daily from Day 1 to Day 29. • b) Treatment group B: Treated with placebo twice daily from Day 1 to Day 29.
The maximal amount of weight that the participant is able to lift for one repetition (1-RM) will be measured on a Hoist multi-station weight machine for the following exercises: leg press, knee extension, knee flexion, and bench press. Isokinetic (Cybex) testing of knee extension/flexion will be done to assess deficiencies in rapid strength recruitment. Subjects will be seated on the testing device and strapped in to prevent the pelvis from sliding forward. The movement arm will be adjusted to the subject's leg length and the weight of the leg will be determined. Isokinetic testing of the knee extensors and flexors will be performed at 0°/s, 60°/s and 180°/s. Four to five repetitions at each mode will be performed with the highest two values used for data analysis. Subjects will be familiarized with these procedures during the screening visit.
An experimental study was conducted to evaluate the impact of Compound 1, a PPARδ agonist, on muscle atrophy during and following the end of limb immobilization in human subjects. Except where specifically noted otherwise below, all methods were conducted as described in the protocol above.
Methods were generally conducted as described in the protocol. The study was designed as a double-blind, randomized, placebo-controlled, parallel study in healthy male subjects. A total of N=24 subjects were randomized. The number of randomized subjects is lower than originally planned. A total of N=21 subjects had data available for statistical analysis.
Multiple imputation statistical methods were used to preserve the intent-to-treat (ITT) principle while coping with invalid and missing data.
Primary analysis was executed as defined in the study protocol and the statistical analysis plan (see protocol described above). […]

Structure (SMILES): Cc1cc(OC/C=C(/c2ccc(F)cc2)c2ccc(C#CCN3CCOCC3)cc2)ccc1OCC(=O)O [Compound 1, (E)-[4-[3-(4-Fluorophenyl)-3-[4-[3-(morpholin-4-yl)propynyl]phenyl]allyloxy]-2-methyl-phenoxy]acetic acid sodium salt]
- Change in muscle strength compared to baseline, difference to placebo (14 days following the end of immobilization (i.e., day 28)): no longer significantly different
- Muscle strength, knee extension, Baseline Mean (Table 1 primary analysis, multiple imputation for missing and invalid data, n = 10, healthy males, raw data in lbs): 195
- Muscle strength, knee extension, LSMean change from baseline, Day 14 (Table 1 primary analysis, multiple imputation, 100 mg twice daily, n = 10, P 0.012 vs placebo): −2.9
- Mean Difference Compound 1 vs Placebo, LSMean change in muscle strength, Day 14 (Table 1 primary analysis, multiple imputation, P 0.012): 36
- Muscle strength, knee extension, LSMean change from baseline, Day 21 (primary) (Table 1 primary analysis, multiple imputation, 100 mg twice daily, n = 10, P 0.004 vs placebo): 36.8
- Mean Difference Compound 1 vs Placebo, LSMean change in muscle strength, Day 21 (primary) (Table 1 primary analysis, multiple imputation, P 0.004): 36.5
- Muscle strength, knee extension, LSMean change from baseline, Day 29 (Table 1 primary analysis, multiple imputation, 100 mg twice daily, n = 10): 30.4
- Mean Difference Compound 1 vs Placebo, LSMean change in muscle strength, Day 29 (Table 1 primary analysis, multiple imputation): 21.9
- Mean Difference Compound 1 vs Placebo, Baseline mean muscle strength (Table 1 primary analysis, multiple imputation, P 0.3): 19
- Muscle strength, knee extension, Baseline Mean (Table 2 supportive analysis, no imputation, excluding protocol violators, n = 9): 191 lbs
- Muscle strength, knee extension, LSMean change from baseline, Day 14 (Table 2 supportive analysis, no imputation, 100 mg twice daily, n = 9, P 0.04 vs placebo): −1.9 lbs
- Mean Difference Compound 1 vs Placebo, LSMean change in muscle strength, Day 14 (Table 2 supportive analysis, no imputation, P 0.04): 36.3 lbs
- Muscle strength, knee extension, LSMean change from baseline, Day 21 (primary) (Table 2 supportive analysis, no imputation, 100 mg twice daily, n = 9, P 0.048 vs placebo): 31.5 lbs
- Mean Difference Compound 1 vs Placebo, LSMean change in muscle strength, Day 21 (primary) (Table 2 supportive analysis, no imputation, P 0.048): 31.3 lbs
- Muscle strength, knee extension, LSMean change from baseline, Day 29 (Table 2 supportive analysis, no imputation, 100 mg twice daily, n = 9): 32.5 lbs
- Mean Difference Compound 1 vs Placebo, LSMean change in muscle strength, Day 29 (Table 2 supportive analysis, no imputation): 19.4 lbs
- Mean Difference Compound 1 vs Placebo, Baseline mean muscle strength (Table 2 supportive analysis, no imputation, P 0.4): 23 lbs
- Primary muscle strength variable of analysis vs placebo (human subjects, N=21 with data available): statistically significant superiority over placebo
- Rate of loss of muscle strength during immobilization (human subjects, compared to their baseline measurements): reduced to almost zero
- Mean change from baseline to day 21 in muscle strength relative to placebo (human subjects, day 21): showed superiority
- Muscle atrophy during immobilization (rate of loss of muscle strength relative to placebo) (human subjects, during immobilization): effective in reducing muscle atrophy during immobilization
- Atrophy following immobilization (rate of return of muscle strength to baseline relative to placebo) (human subjects, following immobilization): reducing atrophy following immobilization
- Maximum muscle strength on the knee extension (KE), raw value, Day 1 (individual Treated subjects A-I, Day 1 baseline, pre-dose, sodium salt): 220.5 Lbs and 145.5 Lbs and 215.5 Lbs and 265.5 Lbs and 123 Lbs and 260.5 Lbs and 168 Lbs and 163 Lbs and 160.5 Lbs
- Maximum muscle strength on the knee extension (KE), raw value, Day 14 (individual Treated subjects A-I, Day 14, day brace is removed, 100 mg twice daily, sodium salt): 200.5 Lbs and 195 Lbs and 163 Lbs and 255.5 Lbs and 120.5 Lbs and 225.5 Lbs and 158 Lbs and 185.5 Lbs and 170.5 Lbs
- Maximum muscle strength on the knee extension (KE), raw value, Day 21 (individual Treated subjects A-I, Day 21, primary endpoint, 100 mg twice daily, sodium salt): 270.5 Lbs (3×) and 225.5 Lbs and 213 Lbs and 158 Lbs and 183 Lbs and 205.5 Lbs
- Maximum muscle strength on the knee extension (KE), raw value, Day 29 (individual Treated subjects A-I, Day 29, final assessment during treatment period, sodium salt): 270.5 Lbs (2×) and 235.5 Lbs and 225.5 Lbs and 213 Lbs and 150.5 Lbs and 183 Lbs and 230.5 Lbs
- Maximum muscle strength on the knee extension (KE), raw value, Day 42 (individual Treated subjects A-I, Day 42, safety follow-up after end of treatment, sodium salt): 270.5 Lbs (3×) and 265.5 Lbs and 238 Lbs and 158 Lbs and 183 Lbs and 220.5 Lbs
